The target of assay [1] is human α2β3γ2 GABAARs (benzodiazepine site) (Homo sapiens (Human), UniProt P18507+P47869). The assay is described as follows: In vitro radioligand binding assay ([3H]Ro15-1788 displacement), α2-GABAAR Ki. The procedure, abridged: (§1)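 Ki derived via Cheng-Prusoff from IC50 for displacement of 4 nM [3H]Ro15-1788 (Kd from saturation binding), with 1-3 μM TP003 defining nonspecific binding. Incubation lasted 1 h at 4° C on membranes of induced L(tk−) cells stably transfected with the human subunits; detection by filtration and scintillation counting.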
Sequence of human α2β3γ2 GABAARs (benzodiazepine site) (P47869 29-451): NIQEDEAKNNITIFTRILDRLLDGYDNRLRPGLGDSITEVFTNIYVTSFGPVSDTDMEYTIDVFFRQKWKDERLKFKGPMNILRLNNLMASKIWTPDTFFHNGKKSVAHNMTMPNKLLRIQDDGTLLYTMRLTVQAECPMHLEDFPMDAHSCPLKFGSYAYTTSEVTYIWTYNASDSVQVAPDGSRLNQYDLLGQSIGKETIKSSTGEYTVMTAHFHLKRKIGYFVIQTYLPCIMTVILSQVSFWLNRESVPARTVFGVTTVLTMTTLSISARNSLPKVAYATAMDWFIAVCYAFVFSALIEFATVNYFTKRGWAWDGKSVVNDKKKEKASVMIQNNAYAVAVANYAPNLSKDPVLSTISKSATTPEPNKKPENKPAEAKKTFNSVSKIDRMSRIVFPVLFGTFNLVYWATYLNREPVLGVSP
Sequence of human α2β3γ2 GABAARs (benzodiazepine site) (P28472 26-473 partner): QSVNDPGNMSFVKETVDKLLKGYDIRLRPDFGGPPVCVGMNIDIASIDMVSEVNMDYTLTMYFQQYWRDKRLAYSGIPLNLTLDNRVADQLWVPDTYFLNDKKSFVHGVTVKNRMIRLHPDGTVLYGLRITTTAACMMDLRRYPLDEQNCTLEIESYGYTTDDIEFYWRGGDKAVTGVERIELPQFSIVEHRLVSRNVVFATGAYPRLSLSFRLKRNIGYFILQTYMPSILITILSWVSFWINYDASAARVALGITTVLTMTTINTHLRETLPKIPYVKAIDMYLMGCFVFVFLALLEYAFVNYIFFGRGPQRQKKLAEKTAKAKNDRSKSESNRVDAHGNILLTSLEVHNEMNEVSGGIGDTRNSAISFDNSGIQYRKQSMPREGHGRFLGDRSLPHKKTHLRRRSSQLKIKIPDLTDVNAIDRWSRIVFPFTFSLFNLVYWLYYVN
Sequence of human α2β3γ2 GABAARs (benzodiazepine site) (P18507 40-475): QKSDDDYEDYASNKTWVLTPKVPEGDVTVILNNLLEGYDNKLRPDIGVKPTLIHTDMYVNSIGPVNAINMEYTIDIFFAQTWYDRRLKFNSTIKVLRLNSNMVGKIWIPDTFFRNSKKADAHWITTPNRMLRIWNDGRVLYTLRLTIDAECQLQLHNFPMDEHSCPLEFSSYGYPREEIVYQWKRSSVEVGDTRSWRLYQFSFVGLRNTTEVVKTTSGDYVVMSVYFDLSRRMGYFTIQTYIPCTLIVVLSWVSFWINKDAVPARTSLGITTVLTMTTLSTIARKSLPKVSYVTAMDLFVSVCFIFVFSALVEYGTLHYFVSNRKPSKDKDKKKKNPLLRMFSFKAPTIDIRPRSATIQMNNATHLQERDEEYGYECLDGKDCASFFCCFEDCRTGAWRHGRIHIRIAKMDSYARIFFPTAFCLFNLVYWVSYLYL

In assay [2] the target is human α3β3γ2 GABAARs (benzodiazepine site) (Homo sapiens (Human), UniProt P18507+P34903). Nature of the assay: In vitro radioligand binding assay ([3H]Ro15-1788 displacement), α3-GABAAR Ki. As to conditions: L(tk-) cell membranes, 4 nM [3H]Ro15-1788. The procedure, abridged: as §1
For assay [3], the system named is rat brain benzodiazepine binding sites on GABAAR. The assay is described as follows: Rat brain receptor occupancy assay ([3H]flumazenil binding). Type of assay: in vivo. The conditions noted are these: for occupancy of rat brain GABAA receptors (benzodiazepine binding sites): mean±SEM. The protocol:
The occupancy of rat brain benzodiazepine binding sites on GABAAR by compound was measured by its ability to inhibit the ex vivo binding of [^3H]Ro15-1788 ([^3H] flumazenil) in brain samples from rats dosed with the test compound.
Male Sprague Dawley rats (c. 200-300 g) were used for the studies. All animals were acclimatized 5-7 days before dosing and were handled and weighed prior to treatments.
Rats (3 to 6 per group) were dosed p.o. with either the vehicle or the test compound suspended in vehicle (doses of 0.1 to 10 mg/kg) at a volume of 5 mL per kg of body weight. To block all benzodiazepine binding sites and therefore define the level of non-specific binding of [^3H]Ro15-1788, a separate group of animals received a dose of 5 mg/kg p.o. of bretazenil (5 mL/kg) made up in 70% PEG, 30 minutes before the animals were killed.
At predetermined time intervals, animals were culled via stunning and cervical dislocation. Brain tissues were harvested promptly, and each left and right hemisphere were snap frozen and stored at −80° C.
On the day of the brain samples analysis, each left hemisphere was weighed and homogenized in 8 volumes of ice-cold 10 mM potassium phosphate buffer (pH 7.4). 300 μL of the mixture was further diluted by adding it to a tube containing 1050 μL of assay buffer and [^3H] flumazenil further added to make a total volume of 1500 μL and achieve a final concentration of 4 nM, mixing immediately and incubating on ice.
Following 20 seconds incubation time, the sample was rapidly filtered through Whatman GF/B filter in triplicates (500 μL/filter) using a vacuum filtration manifold. The filters were subsequently washed with 10 mL of ice cold 50 mM Tris buffer (pH 7.4) and then placed into scintillation vials containing scintillation fluid. Filter-bound radioactivity was counted on a TriCarb2900 scintillation counter.
In each experiment, the value of nonspecific binding defined using bretazenil was subtracted from all groups to give values of specific binding.
The percent GABAAR occupancy of the test compound at a specific dose and treatment time was calculated as the percentage by which the specific binding in the vehicle treated group was inhibited by the drug. Therefore, the % occupancy of the modulator in drug-treated animals was expressed as: 100−((Average test compound−Average bretazenil)/(Average vehicle−Average Bretazenil)*100) where ‘average test compound’, ‘average bretazenil’ and ‘average vehicle’ are the average counts in test compound-, bretazenil- and vehicle-treated animals, respectively.

Where “and” joins values, the source holds several entries; their conditions need not be identical. Equal entries are not always repeated.

A word on the Ki: it is the dissociation constant of the complex between target and ligand, obtained from inhibition or displacement. Take `CCCNC(=O)c1c(N)c2cccc(-c3cnccc3OC)c2[nH]c1=O` [Example 17, 4-Amino-8-(4-methoxy-3-pyridyl)-2-oxo-N-propyl-1H-quinoline-3-carboxamide]: the Ki in assay [1] came out at 1.64 nM; in assay [2] it was 8.74 nM. In assay [3] (10 mg/kg p.o.), the “occupancy of rat brain GABAA receptors (benzodiazepine binding sites)” value is 101+0.5% and 101±0.5%. Moreover, in assay [3] (doses 0.1 to 10 mg/kg p.o.), the “occupancy of rat brain benzodiazepine binding sites, dose dependence” value (“occupancy … dose dependence” for short) is listed as “dose-dependent”.
With `CCCNC(=O)c1c(N)c2cccc(-c3cnc(C)cc3OC)c2[nH]c1=O` [Example 18, 4-Amino-8-(4-methoxy-6-methyl-3-pyridyl)-2-oxo-N-propyl-1H-quinoline-3-carboxamide], the Ki in assay [1] is 9.77 nM; in assay [2] it was 27.9 nM. Besides, the “occupancy … dose dependence” value in assay [3] (doses 0.3 to 10 mg/kg p.o.) was “dose-dependent”.
With `CCCNC(=O)c1c(N)c2cccc(-c3nc(C)ncc3F)c2[nH]c1=O` [Example 40, 4-Amino-8-(5-fluoro-2-methyl-pyrimidin-4-yl)-2-oxo-N-propyl-1H-quinoline-3-carboxamide], the values for the Ki in assay [1] and in assay [2] were 1.19 nM and 5.06 nM, respectively. Moreover, in assay [3] (1 mg/kg p.o.), the “occupancy of rat brain GABAA receptors (benzodiazepine binding sites)” value is recorded as 97.3±2.0%. In addition, the “occupancy … dose dependence” value in assay [3] (doses 0.1 to 10 mg/kg p.o.) is on record as “dose-dependent”.

For the origin of these results see US20250197368A1 (priority 2020, published 2025).
